Key:
[1] = biological target: T1, Staphylococcus aureus lipase (SAL) (Staphylococcus aureus, UniProt A0A0U1MWF9); assay: p-nitrophenyl butyrate hydrolysis, absorbance […] nm; type: biochemical
T1 construct: gene lip; one Ca and one Zn per monomer

[2] = biological target: Staphylococcus aureus lipase (Staphylococcus aureus); assay: SEC + other: SEC-SAXS

Compound	IC50 [1] [µM]	stoichiometry N [2]
CCCCCCCCCCC/C=C\CCCCC(=O)O [PSA, petroselinic acid]	3.4	
CCCCCCCCCCC/C=C\CCCCC(=O)OC [PSM, petroselinic acid methyl ester]	10.5	
Staphylococcus aureus lipase (from UniProt A0A1R3UHM3 1-645) (enzyme)		2

From PMC11148114 (FEBS Open Bio, 2024)
